According to patent publication US12522597B2, “Methods and compositions for modulating splicing” (Skyhawk Therapeutics, Inc., priority 2019, dated 2026):
Like-named read-outs stand apart in the source and are kept apart here.

Experiments:
[1] = test system: Huntingtin (HTT) transcripts; experiment: Quantitative splicing assay (HTT), qPCR; format: cell-based; details: Homo sapiens, GM04724 (CAG 70/20) Huntington's disease patient lymphoblasts, 24 h
Summary of the method: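 Read-out is TaqMan qPCR on cDNA, quantifying inclusion of a cryptic exon within HTT intron 49. Cells were Huntington's patient lymphoblasts GM04724 (CAG 70/20), treated for 24 h at 0.15 nM–2.5 uM compound in 0.1% DMSO.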

[2] = test system: mHTT protein; experiment: mHTT protein assay (2B7-MW1, Mesoscale Discovery); format: cell-based, human; details: GM04724 (CAG 70/20) Huntington's disease patient lymphoblast cells, 48 hours, 2B7-MW1 MSD; read-out: HTT Potency - Protein EC50 mHTT (average)
Summary of the method: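 mHTT levels were read with the 2B7-MW1 antibody pair (N17 and polyQ epitopes) on MSD after 48 h dosing, 10 μM–0.6 nM. Cells were GM04724 HD lymphoblasts (CAG 70/20). A replica plate was read by CTG for cell viability.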

[3] = test system: MDR1-MDCK cell monolayers; experiment: MDCK-MDR1 permeability assay (BBB penetration potential); format: in vitro ADME; details: dog, MDCK-MDR1, 120 min, 5 μM, pH 7.4
Method: (§1) Each determination is performed in duplicate. […] Analytical conditions are outlined below.

[4] = test system: MDR1; experiment: as above; format: in vitro ADME; details: dog; for efflux ratio at 120 min, 5 μM: MDCK-MDR1, pH 7.4, MDCK-MDR1: Efflux; for Papp A→B at 120 min, 5 μM: MDCK-MDR1, pH 7.4, MDCK-MDR1: Papp A-B; for Papp B→A at 120 min, 5 μM: MDCK-MDR1, pH 7.4, MDCK-MDR1: Papp B-A
Method: as §1

[5] = qPCR HTTex49_50, read-out: HTT Potency - Splicing: E49-50 EC50 (average)
[6] = qPCR cryptic exon 49b inclusion, read-out: HTT Potency - Splicing: E49b EC50 (average)

Structure (SMILES) | EC50 [1, 5] [nM] | EC50 [1, 6] [nM] | EC50 [2] [nM] | MDCK-MDR1: % Recov A-B [3] [%] | MDCK-MDR1: % Recov B-A [3] [%] | efflux ratio at 120 min, 5 μM [4] | Papp A→B at 120 min, 5 μM [4] [×10⁻⁶ cm/s] | Papp B→A at 120 min, 5 μM [4] [×10⁻⁶ cm/s]
COc1cc(-c2ccc(-c3ccc(O[C@H]4C[C@@H]5CCC[C@@H](N5)[C@H]4F)nn3)c(O)c2)cnn1 (single isomer, unassigned) [76-ENT2] | 0.01 to 15 | 0.01 to 15 | 0.01 to 15 | 82 | 85 | 10 | 4.19 | 39.9
C[C@@]12CCC[C@@](C)(N1)[C@@H](F)[C@@H](Oc1ccc(-c3ccc(-c4cn[nH]c4)cc3O)nn1)C2 (single isomer, unassigned) [147-ENT1] | 0.01 to 15 | 0.01 to 15 | 0.01 to 15 | 78 | 83 | 13 | 4.61 | 58.1
Cn1ccc2cc(-c3ccc(O[C@H]4C[C@]5(C)CCC[C@@](C)(N5)[C@H]4F)nn3)c(O)cc2c1=O (single isomer, unassigned) [156-ENT2] | 16 to 50 | 16 to 50 | 0.01 to 15 | 80 | 99 | 9 | 4.9 | 46.3
Cn1cc(-c2cc(O)c(-c3ccc(O[C@H]4C[C@@H]5CCC[C@@H](N5)[C@H]4F)nn3)cn2)cn1 (single isomer, unassigned) [64-ENT2] | 501 to 10000 | 501 to 10000 | 501 to 10000 | 92 | 97 | 50 | 0.21 | 10.7
Oc1cc(-c2cn[nH]c2)ccc1-c1ccc(O[C@H]2C[C@@H]3CCC[C@@H](N3)[C@@H]2F)nn1 (single isomer, unassigned) [41-ENT1] | 0.01 to 15 | 0.01 to 15 | 0.01 to 15 | 71 | 86 | 8 | 4.33 | 34.7
Cc1ncc(-c2ccc(-c3ccc(O[C@@H]4C[C@H]5CCC[C@H](N5)[C@@H]4F)nn3)c(O)c2)s1 (single isomer, unassigned) [96-ENT1] | 16 to 50 | 16 to 50 | 16 to 50 | 39 | 72 | 2 | 7.37 | 15.2
Oc1cc(-c2nnco2)ccc1-c1ccc(O[C@@H]2C[C@H]3CCC[C@H](N3)[C@@H]2F)nn1 (single isomer, unassigned) [117-ENT1] | 101 to 500 | 101 to 500 | 51 to 100 | 85 | 106 | 6 | 7.92 | 47.5
Oc1cc(-c2cn[nH]c2)ccc1-c1ccc(O[C@H]2C[C@@H]3CC[C@@H](N3)[C@H]2F)nn1 (single isomer, unassigned) [42-ENT1] | 0.01 to 15 | 0.01 to 15 | 0.01 to 15 | 75 | 84 | 12 | 3.39 | 42.4
Cn1cnc2cc(O)c(-c3ccc(O[C@H]4C[C@]5(C)CCC[C@@](C)(N5)[C@H]4F)nn3)cc2c1=O (single isomer, unassigned) [133-ENT1] | 101 to 500 | 51 to 100 | 0.01 to 15 | 81 | 87 | 10 | 4.98 | 52.4
Cn1ccc2cc(-c3ccc(O[C@@H]4C[C@@]5(C)CC[C@](C)(N5)[C@@H]4F)nn3)c(O)cc2c1=O (single isomer, unassigned) [127-ENT2] | 51 to 100 | 16 to 50 | 16 to 50 | 89 | 103 | 6 | 9.29 | 55.3
Cn1ccc2cc(-c3ccc(O[C@H]4CC5CCC[C@@H](N5)[C@H]4F)nn3)c(O)cc2c1=O (single isomer, unassigned) [125-ENT1] | 101 to 500 | 51 to 100 | 51 to 100 | 101 | 91 | 23 | 3.35 | 76
Cn1cc(-c2cc(O)c(-c3ccc(O[C@H]4C[C@@H]5CCC[C@@H](N5)[C@H]4F)nn3)cc2Cl)cn1 (single isomer, unassigned) [120-ENT2] | 51 to 100 | 16 to 50 | 51 to 100 | 28 | 71 | 7 | 4.47 | 30.2
Cn1cc(-c2ccc(-c3ccc(O[C@H]4C[C@]5(C)CCC[C@@](C)(N5)[C@H]4F)nn3)c(O)c2)cn1 (single isomer, unassigned) [154-ENT1] | 16 to 50 | 0.01 to 15 | 16 to 50 | 73 | 87 | 4 | 9.33 | 37.7
Oc1cc(-c2cn[nH]c2)ccc1-c1ccc(O[C@@H]2C[C@H]3C[C@H](F)C[C@@H](C2)N3)nn1 [compound 113, 2-(6-(((1R,3r,5S,7s)-7-fluoro-9-azabicyclo[3.3.1]nonan-3-yl)oxy)pyridazin-3-yl)-5-(1H-pyrazol-4-yl)phenol] | 0.01 to 15 | 0.01 to 15 | 0.01 to 15 | 86 | 88 | 54 | 1.01 | 54.2
Cn1ccc(-c2ccc(-c3ccc(O[C@H]4C[C@@H]5CCC[C@@H](N5)[C@H]4F)nn3)c(O)c2)n1 (single isomer, unassigned) [68-ENT2] | 16 to 50 | 16 to 50 | 101 to 500 | 76 | 89 | 4 | 8.23 | 31.6
Oc1cc(-n2ccc(F)n2)ccc1-c1ccc(O[C@H]2C[C@@H]3CCC[C@@H](N3)[C@H]2F)nn1 (single isomer, unassigned) [115-ENT2] | 16 to 50 | 16 to 50 | 0.01 to 15 | 43 | 67 | 2 | 6.9 | 12
Oc1cc(-c2nncs2)ccc1-c1ccc(O[C@H]2C[C@@H]3CCC[C@@H](N3)[C@H]2F)nn1 (single isomer, unassigned) [116-ENT2] | 101 to 500 | 101 to 500 | 16 to 50 | 90 | 95 | 5 | 11.3 | 61.4
O=c1cc(-c2ccc(-c3ccc(O[C@H]4C[C@@H]5CCC[C@@H](N5)[C@H]4F)nn3)c(O)c2)cc[nH]1 (single isomer, unassigned) [53-ENT2] | 101 to 500 | 101 to 500 | 101 to 500 | 104 | 103 | 106 | 0.22 | 23.2
Cc1ccc(-c2ccc(-c3ccc(O[C@@H]4C[C@H]5CCC[C@H](N5)[C@@H]4F)nn3)c(O)c2)nn1 (single isomer, unassigned) [75-ENT1] | 501 to 10000 | 501 to 10000 | 501 to 10000 | 90 | 92 | 9 | 3.66 | 32.5
Cn1cc(-c2ccc(-c3ccc(O[C@H]4C[C@@H]5CCC[C@@H](N5)[C@H]4F)nn3)c(O)c2)oc1=O (single isomer, unassigned) [97-ENT2] | 16 to 50 | 16 to 50 | 0.01 to 15 | 74 | 82 | 10 | 3.11 | 32
Oc1cc(-c2cn[nH]c2)ccc1-c1ccc(O[C@@H]2C[C@H]3CC[C@H](N3)[C@H]2F)nn1 (single isomer, unassigned) [43-ENT2] | 16 to 50 | 16 to 50 | 0.01 to 15 | 83 | 84 | 9 | 6.27 | 58.7
